Results as given in patent US7449447B2, “Peptidomimetic NS3-serine protease inhibitors of hepatitis C virus” (priority 2003, dated 2008).
Where a SMILES comes first, the peptide text is derived from it. [ ]: non-standard residue; d: D form. The star is where a group is joined. Pro(3R,4S-CMe2) = CC1(C)[C@@H]2[C@@H](C(=O)O)NC[C@@H]21; Abu(4,4-F2) = N[C@@H](CC(F)F)C(=O)O; Phg = N[C@H](C(=O)O)c1ccccc1; Tle = CC(C)(C)[C@H](N)C(=O)O; Boc = CC(C)(C)OC(=O)*; βAla = NCCC(=O)O

What follows are molecules tested against T1, HCV NS3/NS4a serine protease (Hepatitis C virus genotype 1b, UniProt P26663) (assay: Spectrophotometric assay for HCV protease inhibitory activity (chromogenic ester substrates)). Settings: Ki Rating, Table 2; single chain NS4A21-32-GSGS-NS3 3-181 protease, 30° C., pH 6.5.
T1 construct: amino terminus of the NS3 protease domain (amino acids 3-181) with a tetrapeptide linker; made in house; host or cells: E. coli
T1 sequence (P26663 1013-1207, looked up, natural form): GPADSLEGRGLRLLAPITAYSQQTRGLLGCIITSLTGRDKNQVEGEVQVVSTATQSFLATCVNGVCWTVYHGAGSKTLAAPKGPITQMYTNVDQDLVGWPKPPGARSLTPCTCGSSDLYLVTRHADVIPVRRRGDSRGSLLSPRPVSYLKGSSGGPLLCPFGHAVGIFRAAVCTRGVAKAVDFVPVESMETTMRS
Type: biochemical, hepatitis C virus (strain 1b)
Description: Spectrophotometric Assay: Spectrophotometric assays for the HCV serine protease were performed on the inventive compounds by following the procedure described by R. Zhang et al., Analytical Biochemistry, 270 (1999) 268-275, the disclosure of which is incorporated herein by reference. The assay based on the proteolysis of chromogenic ester substrates is suitable for the continuous monitoring of HCV NS3 protease activity.
HCV NS3 protease (strain 1b) and its NS4A cofactor were constructed as a recombinant single chain protein. The NS4A cofactor domain (amino acid residues 21-32) was fused in frame to the amino terminus of the NS3 protease domain (amino acids 3-181) with a tetrapeptide linker. This NS4A 21-32-GSGS-NS33-181 construct was then expressed in E. coli and purified to >90% homogeneity. Kinetic parameters were determined and found to be the same as that of the full length NS31-631/NS4A1-54 protein complex produced in the baculovirus system (D. L. Sali et al, Biochemistry, 37 (1998) 3392-340). The details of the cloning, expression, purification and kinetic analysis of the of the single chain recombinant protease have been previously described (S. S. Taremi, et al. Protein Science. 7 (1998) 2143-2149.
Protein concentrations were determined by the Biorad dye method using recombinant HCV protease standards previously quantified by amino acid analysis. Prior to assay initiation, the enzyme storage buffer (50 mM sodium phosphate pH 8.0, 300 mM NaCl, 10% glycerol, 0.05% lauryl maltoside and 10 mM DTT) was exchanged for the assay buffer (25 mM MOPS pH 6.5, 300 mM NaCl, 10% glycerol, 0.05% lauryl maltoside, 5 μM EDTA and 5 μM DTT) utilizing a Biorad Bio-Spin P-6 prepacked column.
Protease Assay: HCV protease assays were performed at 30° C. using a 200 μl reaction mix in a 96-well microtiter plate. Assay buffer conditions (25 mM MOPS pH 6.5, 300 mM NaCl, 10% glycerol, 0.05% lauryl maltoside, 5 μM EDTA and 5 μM DTT) were optimized for the NS3/NS4A heterodimer (D. L. Sali et al, ibid.)). Typically, 100 μl mixtures of buffer, substrate and inhibitor were placed in wells and allowed to preincubate at 30° C. for approximately 3 minutes. One hundred μls of pre-warmed protease (30° C.) in assay buffer, was then used to initiate the reaction to produce a final concentration of 1.3 nM HCV). The Substrate cleavage by the protease was monitored over 60 minutes by measuring the release of the phenylazophenol (PAP) product at an absorbance of 370 nm with a continuous read every 30 seconds using a SpectraMax Plus microtiter plate reader (Molecular Devices, Sunnyvale, Calif.). Background hydrolysis of the substrate was subtracted. Inhibitors were tested over a range of concentrations (final DMSO concentration 4%)
Evaluation of Inhibitors The inhibition constants (Ki) for the competitive inhibitors were determined experimentally at fixed concentrations of enzyme and substrate by plotting vo/vi vs. inhibitor concentration ([I]o) according to the rearranged Michaelis-Menten equation for competitive inhibition kinetics: vo/vi=1+[I]o/(Ki(1+[S]o/Km)), where vo is the uninhibited initial velocity, vi is the initial velocity in the presence of inhibitor at any given inhibitor concentration ([I]o) and [S]o is the substrate concentration used. The resulting data were fitted using linear regression and the resulting slope, 1/(Ki(1+[S]o/Km), was used to calculate the Ki value.

SMILES | Ki
CCOC(=O)CCNC(=O)[C@H](CC(F)F)NC(=O)[C@@H]1[C@@H]2[C@H](CN1C(=O)[C@@H](NC(=O)OC(C)(C)C)C(C)(C)C)C2(C)C [Example 163] | > 500 nM
CC(C)[C@H](NC(=O)N[C@H](C(=O)N1C[C@H]2[C@@H]([C@H]1C(=O)N[C@@H](CC(F)F)C(=O)NCCc1ccc(C(N)=O)cc1)C2(C)C)C(C)(C)C)C(=O)O [Example 124] | 100 to 500 nM
CN(C)C(=O)[C@@H](NC(=O)CCNC(=O)[C@H](CC(F)F)NC(=O)[C@@H]1[C@@H]2[C@H](CN1C(=O)[C@@H](NC(=O)OC(C)(C)C)C(C)(C)C)C2(C)C)c1ccccc1 [Example 168] (Boc-[Tle][Pro(3R,4S-CMe2)][Abu(4,4-F2)][βAla][Phg]-NMe2) | > 500 nM
CC(C)[C@H](NC(=O)N[C@H](C(=O)N1C[C@H]2[C@@H]([C@H]1C(=O)N[C@@H](CC(F)F)C(=O)NCCc1ccc(C(=O)N(C)C)cc1)C2(C)C)C(C)(C)C)C(=O)OC(C)(C)C [Example 141] | 100 to 500 nM
CN(C[C@@H](NC(=O)N[C@H](C(=O)N1C[C@H]2[C@@H]([C@H]1C(=O)NC(CC(F)F)C(=O)NCCc1ccc(C(N)=O)cc1)C2(C)C)C(C)(C)C)C(C)(C)C)S(C)(=O)=O (stereo partly shown) [Example 128] | 100 to 500 nM
CC(C)[C@H](NC(=O)N[C@H](C(=O)N1C[C@H]2[C@@H]([C@H]1C(=O)N[C@@H](CC(F)F)C(=O)NCCc1ccc(C(=O)N(C)C)cc1)C2(C)C)C(C)(C)C)C(=O)O [Example 131] | 100 to 500 nM
CC(C)[C@H](NC(=O)N[C@H](C(=O)N1C[C@H]2[C@@H]([C@H]1C(=O)N[C@@H](CC(F)F)C(=O)NCCC(=O)OC(C)(C)C)C2(C)C)C(C)(C)C)C(=O)OC(C)(C)C [Example 174] | > 500 nM
CC(C)[C@H](NC(=O)N[C@H](C(=O)N1C[C@H]2[C@@H]([C@H]1C(=O)N[C@@H](CC(F)F)C(=O)NCCc1ccc(C(=O)O)cc1)C2(C)C)C(C)(C)C)C(=O)OC(C)(C)C [Example 125] | 100 to 500 nM
CC(C)[C@H](NC(=O)N[C@H](C(=O)N1C[C@H]2[C@@H]([C@H]1C(=O)NC(CC(F)F)C(=O)NCCc1ccccc1Cl)C2(C)C)C(C)(C)C)C(=O)OC(C)(C)C (stereo partly shown) [Example 147] | > 500 nM
COC(=O)c1ccc(CCNC(=O)[C@H](CC(F)F)NC(=O)[C@@H]2[C@@H]3[C@H](CN2C(=O)[C@@H](NC(=O)OC(C)(C)C)C(C)(C)C)C3(C)C)cc1 [Example 148] | > 500 nM
CC(C)(C)[C@H](NC(=O)NC1(CS(C)(=O)=O)CCCCC1)C(=O)N1C[C@H]2[C@@H](C1C(=O)NC(CC(F)F)C(=O)NCCc1ccc(C(N)=O)cc1)C2(C)C (stereo partly shown) [Example 135] | 100 to 500 nM
COC(=O)c1ccc(CCNC(=O)C(CC(F)F)NC(=O)[C@@H]2[C@@H]3[C@H](CN2C(=O)[C@@H](NC(=O)N[C@H](C(=O)OC(C)(C)C)C(C)C)C(C)(C)C)C3(C)C)cc1 (stereo partly shown) [Example 138] | 100 to 500 nM

Same assay, conditions: Ki, Table 1; single chain NS4A21-32-GSGS-NS3 3-181 protease, 30° C., pH 6.5

SMILES | Ki
CC(C)(C)[C@H](NC(=O)NC1(CS(C)(=O)=O)CCCCC1)C(=O)N1C[C@H]2[C@@H](C1C(=O)NC(CC(F)F)C(=O)NCCc1ccc(C(N)=O)cc1)C2(C)C (stereo partly shown) [Example 109] | 38 nM
CC(C)(C)[C@H](NC(=O)N[C@H](CN1CCCS1(=O)=O)C(C)(C)C)C(=O)N1C[C@H]2[C@@H](C1C(=O)NC(CC(F)F)C(=O)NCCc1ccc(C(=O)O)cc1Cl)C2(C)C (stereo partly shown) [Example 102] | 21 nM
CC(C)(C)[C@H](NC(=O)N[C@H](CN1CCCS1(=O)=O)C(C)(C)C)C(=O)N1C[C@H]2[C@@H](C1C(=O)NC(CC(F)F)C(=O)NCCc1ccc(C(N)=O)cc1Cl)C2(C)C (stereo partly shown) [Example 111] | 42 nM

Same assay, conditions: Ki, Table 3; rating; single chain NS4A21-32-GSGS-NS3 3-181 protease, 30° C., pH 6.5

SMILES | Ki
CCN(Cc1ccncc1)C(=O)[C@H](CC(F)F)NC(=O)[C@@H]1[C@@H]2[C@H](CN1C(=O)[C@@H](NC(=O)N[C@H](CN(C)S(C)(=O)=O)C(C)(C)C)C(C)(C)C)C2(C)C [Example 304] | > 500 nM
CN(C[C@@H](NC(=O)N[C@H](C(=O)N1C[C@H]2[C@@H]([C@H]1C(=O)N[C@@H](CC(F)F)C(=O)NCC1CC1)C2(C)C)C(C)(C)C)C(C)(C)C)S(C)(=O)=O [Example 205] | > 500 nM
CN(C[C@@H](NC(=O)N[C@H](C(=O)N1C[C@H]2[C@@H]([C@H]1C(=O)N[C@@H](CC(F)F)C(=O)NCCCN1CCOCC1)C2(C)C)C(C)(C)C)C(C)(C)C)S(C)(=O)=O [Example 242] | > 500 nM
CN(C[C@@H](NC(=O)N[C@H](C(=O)N1C[C@H]2[C@@H]([C@H]1C(=O)N[C@@H](CC(F)F)C(=O)NCCc1c[nH]c3ccccc13)C2(C)C)C(C)(C)C)C(C)(C)C)S(C)(=O)=O [Example 252] | < 100 nM
CN(C[C@@H](NC(=O)N[C@H](C(=O)N1C[C@H]2[C@@H]([C@H]1C(=O)N[C@@H](CC(F)F)C(=O)NCCc1ccc(Cl)cc1Cl)C2(C)C)C(C)(C)C)C(C)(C)C)S(C)(=O)=O [Example 283] | < 100 nM
CN(C[C@@H](NC(=O)N[C@H](C(=O)N1C[C@H]2[C@@H]([C@H]1C(=O)N[C@@H](CC(F)F)C(=O)N[C@@H]1CCC[C@H]1OCc1ccccc1)C2(C)C)C(C)(C)C)C(C)(C)C)S(C)(=O)=O [Example 254] | > 500 nM
CN(CCc1ccccn1)C(=O)[C@H](CC(F)F)NC(=O)[C@@H]1[C@@H]2[C@H](CN1C(=O)[C@@H](NC(=O)N[C@H](CN(C)S(C)(=O)=O)C(C)(C)C)C(C)(C)C)C2(C)C [Example 305] | > 500 nM
CCOc1ccc(CCNC(=O)[C@H](CC(F)F)NC(=O)[C@@H]2[C@@H]3[C@H](CN2C(=O)[C@@H](NC(=O)N[C@H](CN(C)S(C)(=O)=O)C(C)(C)C)C(C)(C)C)C3(C)C)cc1 [Example 274] | < 100 nM
COc1ccc(Br)cc1CCNC(=O)[C@H](CC(F)F)NC(=O)[C@@H]1[C@@H]2[C@H](CN1C(=O)[C@@H](NC(=O)N[C@H](CN(C)S(C)(=O)=O)C(C)(C)C)C(C)(C)C)C2(C)C [Example 300] | < 100 nM
CN(C[C@@H](NC(=O)N[C@H](C(=O)N1C[C@H]2[C@@H]([C@H]1C(=O)N[C@@H](CC(F)F)C(=O)NCCOc1ccccc1)C2(C)C)C(C)(C)C)C(C)(C)C)S(C)(=O)=O [Example 221] | > 500 nM
CN(C[C@@H](NC(=O)N[C@H](C(=O)N1C[C@H]2[C@@H]([C@H]1C(=O)N[C@@H](CC(F)F)C(=O)NCC(c1ccccc1)c1ccccc1)C2(C)C)C(C)(C)C)C(C)(C)C)S(C)(=O)=O [Example 228] | > 500 nM
CCOc1ccc(CCNC(=O)[C@H](CC(F)F)NC(=O)[C@@H]2[C@@H]3[C@H](CN2C(=O)[C@@H](NC(=O)N[C@H](CN(C)S(C)(=O)=O)C(C)(C)C)C(C)(C)C)C3(C)C)cc1OC [Example 287] | < 100 nM
COc1ccc(CCNC(=O)[C@H](CC(F)F)NC(=O)[C@@H]2[C@@H]3[C@H](CN2C(=O)[C@@H](NC(=O)N[C@H](CN(C)S(C)(=O)=O)C(C)(C)C)C(C)(C)C)C3(C)C)cc1OC [Example 280] | < 100 nM
CN(C[C@@H](NC(=O)N[C@H](C(=O)N1C[C@H]2[C@@H]([C@H]1C(=O)N[C@@H](CC(F)F)C(=O)NCCc1ccc(Cl)c(Cl)c1)C2(C)C)C(C)(C)C)C(C)(C)C)S(C)(=O)=O [Example 285] | < 100 nM
CN(C[C@@H](NC(=O)N[C@H](C(=O)N1C[C@H]2[C@@H]([C@H]1C(=O)N[C@@H](CC(F)F)C(=O)NC1CCCc3ccccc31)C2(C)C)C(C)(C)C)C(C)(C)C)S(C)(=O)=O (stereo partly shown) [Example 224] | > 500 nM
CN(C[C@@H](NC(=O)N[C@H](C(=O)N1C[C@H]2[C@@H]([C@H]1C(=O)N[C@@H](CC(F)F)C(=O)NCCc1c(Cl)cccc1Cl)C2(C)C)C(C)(C)C)C(C)(C)C)S(C)(=O)=O [Example 284] | < 100 nM
